# According to US5196094A, “Separation of 1,1,1-trichloroethane from the lower alcohols by extractive distillation” (priority 1991, dated 1993):
# What was measured:
# [1] = Vapor-liquid equilibrium still, separation of 1,1,1-trichloroethane from n-propanol; type: physicochemical
# [2] = Vapor-liquid equilibrium still, separation of 1,1,1-trichloroethane from ethanol; type: physicochemical; conditions: 1,1,1-trichloroethane from ethanol
# [3] = Vapor-liquid equilibrium still, separation of 1,1,1-trichloroethane from t-butanol; type: physicochemical; conditions: 1,1,1-trichloroethane from t-butanol
# [4] = minimum boiling azeotrope with 1,1,1-trichloroethane; cited from earlier work
# [5] = Vapor-liquid equilibrium still, separation of 1,1,1-trichloroethane from methanol; type: physicochemical
# [6] = Vapor-liquid equilibrium still, separation of 1,1,1-trichloroethane from 2-butanol; type: physicochemical
# [7] = Vapor-liquid equilibrium still, separation of 1,1,1-trichloroethane from isopropanol; type: physicochemical
# [8] = Run in glass perforated plate rectification column, n-propanol; type: physicochemical
# Experimental: A solution comprising 250 grams of the 1,1,1-trichloroethane-n-propanol azeotrope was placed in the stillpot of the 7.3 theoretical plate rectification column. […] The temperature of the extractive agent as it entered the top of the column was 75° C. After establishing the feed rate of the extractive agent, the heat input to the 1,1,1-trichloroethane […] in the stillpot was adjusted to give a total reflux rate of 40 ml/min. After 1.5 hours operation, overhead and bottoms samples were collected and analysed. […] This gives an average relative volatility of 2.33 for each theoretical plate.
# [9] = Run in glass perforated plate rectification column, methanol; type: physicochemical; conditions: 1 h
# Experimental: A solution comprising 250 grams of the 1,1,1-trichloroethane-methanol azeotrope was placed in the stillpot of a 7.3 theoretical plate glass perforated plate rectification column. […] The temperature of the extractive agent as it entered the top of the column was 65° C. After establishing the feed rate of the extractive agent, the heat input to the 1,1,1-trichloroethane-methanol in the stillpot was adjusted to give a total reflux rate of 40 ml/min. After 1.5 hours operation, overhead and bottoms samples were collected and analysed by gas chromatography. The overhead analysis was 90.2% 1,1,1-trichloroethane, 9.8% methanol and the bottoms analysis was 0.8% 1,1,1-trichloroethane, 99.2% methanol.
# [10] = Run in glass perforated plate rectification column, ethanol; type: physicochemical; conditions: 1 h
# Experimental: (§1) A solution comprising 250 grams of the 1,1,1-trichloroethane ethanol azeotrope was placed in the stillpot of the 7.3 theoretical plate rectification column. […] The temperature of the extractive agent as it entered the top of the column was 70° C. After establishing the feed rate of the extractive agent, the heat input to the 1,1,1-trichloroethane ethanol in the stillpot was adjusted to give a total reflux rate of 40 ml/min. After 1.5 hours operation, overhead and bottoms samples were collected and analysed.
# [11] = Run in glass perforated plate rectification column, 2-butanol; type: physicochemical
# Experimental: A solution comprising 250 grams of the 1,1,1-trichloroethane-2-butanol azeotrope was placed in the stillpot of the 7.3 theoretical plate rectification column. […] The temperature of the extractive agent as it entered the column was 83° C. After establishing the feed rate of the extractive agent, the heat input to the 1,1,1-trichloroethane-2-butanol in the stillpot as adjusted to give a total reflux rate of 40 ml/min. After 1.5 hours operation, overhead and bottoms samples were collcted and analysed. The overhead analysis was 99.7% 1,1,1-trichloroetahne, 0.3% 2-butanol and the bottoms analysis was 55.1% 1,1,1-trichloroethane, 44.9% 2-butanol. This gives an average relative volatility of 2.15 for each theoretical plate.
# [12] = Run in glass perforated plate rectification column, isopropanol; type: physicochemical
# Experimental: as §1, with “1,1,1-trichloroethane-isopropanol” for “1,1,1-trichloroethane ethanol”, “73°” for “70°”
# [13] = Run in glass perforated rectification column, t-butanol; type: physicochemical
# Experimental: A solution comprising 250 grams of the 1,1,1-trichloroethane-t-butanol azeotrope was placed in the stillpot of the 7.3 theoretical plate rectification column. […] The temperature of the extractive agent as it entered the top of the column was 80° C. After establishing the feed rate of the extractive agent, the heat input to the 1,1,1-trichloroethane-t-butanol in the stillpot was adjusted to give a total reflux rate of 40 ml/min. After 1.5 hours operation, overhead and bottoms samples were collected and analysed. The overhead analysis was 95.7% 1,1,1-trichloroethane, 4.3% t-butanol and the bottoms analysis was 33.5% 1,1,1-trichloroethane, 66.5% t-butanol. This gives an average relative volatility of 1.68 for each theoretical plate.
# [14] = 1,1,1-trichloroethane from n-propanol, vapor-liquid equilibrium still
# [15] = 1,1,1-trichloroethane from 2-butanol, vapor-liquid equilibrium still
# [16] = 1,1,1-trichloroethane from methanol, vapor-liquid equilibrium still
# [17] = […], average for each theoretical plate
# [18] = 70 g azeotrope, 30 g agent, refluxed eight hours
smiles,measurement,setting,value
CCCCO [1-Butanol],Relative Volatility,[1]; [14],3.9
same,Relative Volatility,[2],3.5
same,Relative Volatility,[3],2.7
CCC(C)O (centres unmarked) [2-Butanol],"1,1,1-trichloroethane content of azeotrope",[4],90%
same,azeotrope boiling point,[4],70.5 °C
same,Relative Volatility,[2],2.0
CC(=O)OCc1ccccc1 [Benzyl acetate],Relative Volatility,[5],2.5
same,Relative Volatility,[2],1.2
same,Relative Volatility,[6]; [15],1.7
same,Relative Volatility,[7],1.55
CCCCOCCOCCO [Diethylene glycol butyl ether],Relative Volatility,[5]; [16],2.1
same,Relative Volatility,[1]; [14],2.8
same,Relative Volatility,[6],2.7
same,Relative Volatility,[3],1.5
CCOCCOCCO [Diethylene glycol ethyl ether],Relative Volatility,[5],2.9
same,Relative Volatility,[2],1.2
same,Relative Volatility,[6]; [15],2.8
same,Relative Volatility,[3],1.4
CCCCCCOCCOCCO [Diethylene glycol hexyl ether],Relative Volatility,[5]; [16],4.2
same,Relative Volatility,[1]; [14],2.0
same,Relative Volatility,[6]; [15],2.3
same,Relative Volatility,[3],1.5
COCCOCCO [Diethylene glycol methyl ether],Relative Volatility,[5]; [16],3.3
same,Relative Volatility,[1],2.7
same,Relative Volatility,[2],3.3
same,Relative Volatility,[6],3.0
same,Relative Volatility,[3],2.2
CN(C)C=O [Dimethylformamide],Relative Volatility,[5],2.8
same,Relative Volatility,[1],2.8
same,Relative Volatility,[6],2.8
same,Relative Volatility,[7],1.55
C[S+](C)[O-] [Dimethylsulfoxide],Relative Volatility,[8]; 1 h,2.17
same,Relative Volatility,[8]; [17],2.33
same,Weight % CH3 CCl3,"[8]; bottoms, 1 h",40%
same,Weight % n-Propanol,"[8]; bottoms, 1 h",60%
same,Weight % CH3 CCl3,"[8]; overhead, 1 h",99.5%
same,Weight % n-Propanol,"[8]; overhead, 1 h",0.5%
same,Relative Volatility,[9],2.13
same,Weight % CH3 CCl3,[9]; bottoms,3.5%
same,Weight % Methanol,[9]; bottoms,96.5%
same,Weight % CH3 CCl3,[9]; overhead,90.2%
same,Weight % Methanol,[9]; overhead,9.8%
same,"liquid composition, 1,1,1-trichloroethane",[5]; [18],11%
same,"liquid composition, methanol",[5]; [18],89%
same,"vapor composition, 1,1,1-trichloroethane",[5]; [18],24.2%
same,"vapor composition, methanol",[5]; [18],75.8%
same,Relative Volatility,[10],2.1
same,Weight % CH3 CCl3,[10]; bottoms,13.6%
same,Weight % Ethanol,[10]; bottoms,86.4%
same,Weight % CH3 CCl3,[10]; overhead,97.3%
same,Weight % Ethanol,[10]; overhead,2.7%
same,Relative Volatility,[1]; [14],2.3
same,Relative Volatility,[11]; 1 h,2.1
same,Relative Volatility,[11]; [17],2.15
same,Weight % 2-Butanol,"[11]; bottoms, 1 h",46.9%
same,Weight % CH3 Cl3,"[11]; bottoms, 1 h",53.1%
same,Weight % 2-Butanol,"[11]; overhead, 1 h",0.4%
same,Weight % CH3 Cl3,"[11]; overhead, 1 h",99.6%
same,Relative Volatility,[12]; 1 h,2.5
same,Relative Volatility,[12]; [17],2.2
same,Weight % CH3 CCl3,"[12]; bottoms, 1 h",27.8%
same,Weight % Isopropanol,"[12]; bottoms, 1 h",72.2%
same,Weight % CH3 CCl3,"[12]; overhead, 1 h",99.6%
same,Weight % Isopropanol,"[12]; overhead, 1 h",0.4%
same,Relative Volatility,[13]; 1 h,1.68
same,Relative Volatility,[13]; [17],1.68
same,Weight % CH3 CCl3,"[13]; bottoms, 1 h",43.4%
same,Weight % t-Butanol,"[13]; bottoms, 1 h",56.6%
same,Weight % CH3 CCl3,"[13]; overhead, 1 h",97.1%
same,Weight % t-Butanol,"[13]; overhead, 1 h",2.9%
same,Relative Volatility,[6],2.2
same,Relative Volatility,[7],2.5
same,Relative Volatility,[3],1.7
CCOC(=O)CC(C)C [Ethyl isovalerate],Relative Volatility,[5],2.7
same,Relative Volatility,[2],1.4
same,Relative Volatility,[6],1.6
same,Relative Volatility,[7],1.6
CCCCC(=O)OCC [Ethyl n-valerate],Relative Volatility,[5],2.7
same,Relative Volatility,[2],1.6
same,Relative Volatility,[6],1.5
same,Relative Volatility,[7],1.35
O=C1OCCO1 [Ethylene carbonate],Relative Volatility,[5]; [16],3.3
same,Relative Volatility,[2],3.2
same,Relative Volatility,[6]; [15],2.8
same,Relative Volatility,[3],1.3
CCCCOCCOC(C)=O [Ethylene glycol butyl ether acetate],Relative Volatility,[5]; [16],2.1
same,Relative Volatility,[2],1.2
same,Relative Volatility,[6],1.8
same,Relative Volatility,[7],1.3
CCCCOCCO [Ethylene glycol butyl ether],Relative Volatility,[5]; [16],3.2
same,Relative Volatility,[1]; [14],2.0
same,Relative Volatility,[6]; [15],2.8
same,Relative Volatility,[3],1.7
CC(=O)OCCOC(C)=O [Ethylene glycol diacetate],Relative Volatility,[1],1.7
same,Relative Volatility,[2],1.7
same,Relative Volatility,[3],1.3
CCOCCO [Ethylene glycol ethyl ether],Relative Volatility,[1],3.6
same,Relative Volatility,[2],2.5
same,Relative Volatility,[6],3.1
same,Relative Volatility,[3],2.2
COCCO [Ethylene glycol methyl ether],Relative Volatility,[1],4.4
same,Relative Volatility,[2],1.95
same,Relative Volatility,[6],4.5
same,Relative Volatility,[3],3.1
